Data from patent US20210114983A1, “Cathepsin C inhibitors” (National Institute of Biological Sciences, Beijing, priority 2018, published 2021).

target: rhCatC (Cathepsin C) (Homo sapiens, UniProt P53634); experiment: In Vitro CatC Enzyme Assay; type: biochemical; conditions: read-out: Cat C Enzy (Cathepsin C inhibitory activity, IC50)
Method: In Vitro CatC Enzyme Assay
The CatC enzyme assay was performed in black 384-well plate. Firstly, rhCatC (440 nM) was activated by rhCatL (300 nM) in activation buffer (25 mM MES, 5 mM DTT, pH 6.0) at room temperature for 2 h and then activated rhCatC was diluted to 4.4 nM in assay buffer (25 mM MES, 50 mM NaCl, 5 mM DTT, 0.01% (v/v) Triton X100, pH 6.0), 14 μL activated rhCatC and 1 μL compound in 10% DMSO or 10% DMSO were incubated at room temperature for 3 h, and 5 μL substrate (Gly-Phe-AFC) was added to final concentration of 100 μM. After 60 min reaction, the product of the reaction was measured in the Enspire plate reader using Ex λ400 nm and Em λ505 nm for AFC. A standard irreversible CatC inhibitor 10 by AstraZeneca (J. Med. Chem. 2014, 57, 2357-2367) was used as an inhibitor control in the assay.

Sequence of rhCatC (Cathepsin C) (P53634 25-134 limits assumed): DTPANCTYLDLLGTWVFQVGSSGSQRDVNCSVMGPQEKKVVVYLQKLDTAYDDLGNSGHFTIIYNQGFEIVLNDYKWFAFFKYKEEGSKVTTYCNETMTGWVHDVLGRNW
Sequence of rhCatC (Cathepsin C) (P53634 231-394 limits assumed): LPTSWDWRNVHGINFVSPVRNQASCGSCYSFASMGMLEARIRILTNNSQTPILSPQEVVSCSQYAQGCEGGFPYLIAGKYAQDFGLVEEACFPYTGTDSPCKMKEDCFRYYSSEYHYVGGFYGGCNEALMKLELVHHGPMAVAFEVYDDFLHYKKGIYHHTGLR
Sequence of rhCatC (Cathepsin C) (P53634 395-463 limits assumed): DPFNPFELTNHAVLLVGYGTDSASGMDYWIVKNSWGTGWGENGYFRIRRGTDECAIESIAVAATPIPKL

Row | Structure (SMILES) | IC50 [nM]
1 | C=CC(=O)Nc1cccc(Oc2nc(Nc3ccc(N4CCN(C)CC4)cc3OC)ccc2Cl)c1 [Compound 1, N-(3-((3-chloro-6-((2-methoxy-4-(4-methylpiperazin-1-yl)phenyl)amino)pyridin-2-yl)oxy)phenyl)acrylamide] | 300 to 30000
2 | C=CC(=O)Nc1cccc(Oc2nc(Nc3ccc(N4CCOCC4)cc3)ccc2Cl)c1 [Compound 2, N-(3-((3-chloro-6-((4-morpholinophenyl)amino)pyridin-2-yl)oxy)phenyl)acrylamide] | 300 to 30000
3 | C=CC(=O)Nc1cccc(Oc2nc(Nc3ccccc3)ccc2Cl)c1 [Compound 3, N-(3-((3-chloro-6-(phenylamino)pyridin-2-yl)oxy)phenyl)acrylamide] | 300 to 30000
4 | C=CC(=O)Nc1cccc(Oc2nc(Nc3ccc(N4CCN(C)CC4)cc3)ccc2Cl)c1 [Compound 4, N-(3-((3-chloro-6-((4-(4-methylpiperazin-1-yl)phenyl)amino)pyridin-2-yl)oxy)phenyl)acrylamide] | 300 to 30000
5 | C=CC(=O)Nc1cccc(Oc2cccc(Nc3ccc(N4CCN(C)CC4)cc3)n2)c1 [Compound 5, N-(3-((6-((4-(4-methylpiperazin-1-yl)phenyl)amino)pyridin-2-yl)oxy)phenyl)acrylamide] | 300 to 30000
6 | C=CC(=O)Nc1cccc(Oc2nc(Nc3cccc(CN)c3)ccc2Cl)c1 [Compound 6, N-(3-((6-((3-(aminomethyl)phenyl)amino)-3-chloropyridin-2-yl)oxy)phenyl)acrylamide] | 300 to 30000
7 | C=CC(=O)Nc1cccc(Oc2nc(Nc3ccc(N4CCNCC4)cc3)ccc2Cl)c1 [Compound 7, N-(3-((3-chloro-6-((4-(piperazin-1-yl)phenyl)amino)pyridin-2-yl)oxy)phenyl)acrylamide] | 300 to 30000
8 | C/C=C/C(=O)Nc1cccc(Oc2nc(Nc3ccc(N4CCNCC4)cc3)ccc2Cl)c1 [Compound 8] | 300 to 30000
9 | C=CC(=O)Nc1cccc(Oc2nc(Nc3ccc(N4CCC[C@@H](N)C4)cc3OC)ccc2Cl)c1 [Compound 9, (R)-N-(3-((6-((4-(3-aminopiperidin-1-yl)-2-methoxyphenyl)amino)-3-chloropyridin-2-yl)oxy)phenyl)acrylamide] | 300 to 30000
10 | C=CC(=O)Nc1cccc(Oc2nc(Nc3ccc(CCN)cc3)ccc2Cl)c1 [Compound 10, N-(3-((6-((4-(2-aminoethyl)phenyl)amino)-3-chloropyridin-2-yl)oxy)phenyl)acrylamide] | 300 to 30000
11 | C=CC(=O)Nc1cccc(Oc2nc(Nc3ccc(N4CCN(C)CC4)c(OC)c3)ccc2Cl)c1 [Compound 11, N-(3-((3-chloro-6-((3-methoxy-4-(4-methylpiperazin-1-yl)phenyl)amino)pyridin-2-yl)oxy)phenyl)acrylamide] | 300 to 30000
12 | COc1cc(N2CCN(C)CC2)ccc1Nc1ccc(Cl)c(Oc2cccc(NC(=O)C=C(C)C)c2)n1 [Compound 12, N-(3-((3-chloro-6-((2-methoxy-4-(4-methylpiperazin-1-yl)phenyl)amino)pyridin-2-yl)oxy)phenyl)-3-methylbut-2-enamide] | 300 to 30000
13 | C#CC(=O)Nc1cccc(Oc2nc(Nc3ccc(N4CCN(C)CC4)cc3OC)ccc2Cl)c1 [Compound 13, N-(3-((3-chloro-6-((2-methoxy-4-(4-methylpiperazin-1-yl)phenyl)amino)pyridin-2-yl)oxy)phenyl)propiolamide] | 300 to 30000
14 | C=CC(=O)Nc1cccc(Oc2nc(Nc3ccc(N4CCN(CC5CC5)CC4)cc3)ccc2Cl)c1 [Compound 14, N-(3-((3-chloro-6-((4-(4-(cyclopropylmethyl)piperazin-1-yl)phenyl)amino)pyridin-2-yl)oxy)phenyl)acrylamide] | 300 to 30000
15 | C=CC(=O)Nc1cccc(Oc2nc(Nc3ccc(N4CCN(CC5CCCC5)CC4)cc3)ccc2Cl)c1 [Compound 15, N-(3-((3-chloro-6-((4-(4-(cyclopentylmethyl)piperazin-1-yl)phenyl)amino)pyridin-2-yl)oxy)phenyl)acrylamide] | 300 to 30000

Now from value to molecule:

Row | IC50 [nM] | Structure (SMILES)
16 | 300 to 30000 | C=CC(=O)Nc1cccc(Oc2nc(Nc3ccc(N4CCN(C)CC4)cc3OC)ccc2C(F)(F)F)c1 [Compound 16, N-(3-((6-((2-methoxy-4-(4-methylpiperazin-1-yl)phenyl)amino)-3-(trifluoromethyl)pyridin-2-yl)oxy)phenyl)acrylamide]
17 | 300 to 30000 | C=CC(=O)Nc1cccc(Oc2nc(Nc3ccc(N4CCN(C)CC4)cc3OC)ccc2C#N)c1 [Compound 17, N-(3-((3-cyano-6-((2-methoxy-4-(4-methylpiperazin-1-yl)phenyl)amino)pyridin-2-yl)oxy)phenyl)acrylamide]
18 | 300 to 30000 | C=CC(=O)Nc1cc(Oc2nc(Nc3ccc(N4CCN(C)CC4)cc3OC)ccc2Cl)ccc1C [Compound 18, N-(5-((3-chloro-6-((2-methoxy-4-(4-methylpiperazin-1-yl)phenyl)amino)pyridin-2-yl)oxy)-2-methylphenyl)acrylamide]
19 | 300 to 30000 | C=CC(=O)Nc1cccc(Nc2nc(Nc3ccc(N4CCN(C)CC4)cc3OC)ccc2Cl)c1 [Compound 19, N-(3-((3-chloro-6-((2-methoxy-4-(4-methylpiperazin-1-yl)phenyl)amino)pyridin-2-yl)amino)phenyl)acrylamide]
20 | 3 to 300 | C=CC(=O)Nc1cccc(Oc2nc(Nc3ccc(N4CCN(C)CC4)cc3OC)ccc2N2CCCC2)c1 [Compound 20, N-(3-((6-((2-methoxy-4-(4-methylpiperazin-1-yl)phenyl)amino)-3-(pyrrolidin-1-yl)pyridin-2-yl)oxy)phenyl)acrylamide]
21 | 300 to 30000 | C=CC(=O)Nc1cccc(Oc2cccc(Nc3ccc(N4CCN(C)CC4)cc3OC)n2)c1 [Compound 21, N-(3-((6-((2-methoxy-4-(4-methylpiperazin-1-yl)phenyl)amino)pyridin-2-yl)oxy)phenyl)acrylamide]
22 | 300 to 30000 | C=CC(=O)Nc1cccc(Oc2nc(Nc3ccc(N4CCN(C)CC4)cc3OC)ccc2N(C)C)c1 [Compound 22, N-(3-((3-(dimethylamino)-6-((2-methoxy-4-(4-methylpiperazin-1-yl)phenyl)amino)pyridin-2-yl)ox)phenyl)acrylamide]
23 | 300 to 30000 | C#Cc1ccc(Nc2ccc(N3CCN(C)CC3)cc2OC)nc1Oc1cccc(NC(=O)C=C)c1 [Compound 23, N-(3-((3-ethynyl-6-((2-methoxy-4-(4-methylpiperazin-1-yl)phenyl)amino)pyridin-2-yl)oxy)phenyl)acrylamide]
24 | 300 to 30000 | C=CC(=O)Nc1cccc(N(C)c2cccc(Nc3ccc(N4CCN(C)CC4)cc3OC)n2)c1 [Compound 24, N-(3-((6-((2-methoxy-4-(4-methylpiperazin-1-yl)phenyl)amino)pyridin-2-yl)(methyl)amino)phenyl)acrylamide]
25 | 300 to 30000 | C=CC(=O)Nc1cccc(N(Cc2ccccc2)c2cccc(Nc3ccc(N4CCN(C)CC4)cc3OC)n2)c1 [Compound 25, N-(3-(benzyl(6-((2-methoxy-4-(4-methylpiperazin-1-yl)phenyl)amino)pyridin-2-yl)amino)phenyl)acrylamide]
26 | 300 to 30000 | C=CC(=O)Nc1cccc(Oc2nc(N(C)c3ccc(N4CCNCC4)cc3)ccc2Cl)c1 [Compound 26]
27 | 300 to 30000 | C=CC(=O)Nc1cccc(Oc2nc(N(Cc3ccccc3)c3ccc(N4CCNCC4)cc3)ccc2Cl)c1 [Compound 27, N-(3-((6-(benzyl(4-(piperazin-1-yl)phenyl)amino)-3-chloropyridin-2-yl)oxy)phenyl)acrylamide]
